Test results reported in paper PMC9837997, “Purification, Characterization and anticancer activity of L-methionine γ-lyase from thermo-tolerant Aspergillus fumigatus” (Microbial Cell Factories, 2023).

Tested on: T1, L-methionine γ-lyase (MGL); A. fumigatus L-methioninase
T1 construct: native extracellular enzyme purified from culture supernatant (heat treatment, Sephadex G-100); about 46 kDa on SDS-PAGE; homodimer
Experiment: DTNB assay of released methanethiol at […] nm, Lineweaver-Burk plot
Format: biochemical, Aspergillus fumigatus
Conditions: 0.05 M potassium phosphate pH 7.0, 0.01 mM PLP, 0.25 mM DTNB, 30 °C; read-out: apparent Km

CSCC[C@H](N)C(=O)O [L-methionine]
Km: 20.6 mM
